Data on 2 molecules can be found in patent US20120258172A1, “Compositions For The Treatment of Central Nervous System Disorders Including Depression Employing Novel Drug Combination Therapy To Reduce Suicidality In Patients” (priority 2010, published 2012).

Where only a bound is given, the exact number is not on record here.

The test system of series [1] is severely depressed patients with suicidal thoughts and behaviors. To be noted: of 40 patients in the arm.
Series [2] has the same test system. Briefly: Phase II trial: Beck Hopelessness Scale (BHS). The format is in vivo, human. To be noted: n = 40 per arm. An excerpt:
(§1) Ninety-three patients were screened and 80 subjects were identified who were between the ages of 18 to 75, inclusive, and met the criteria for major depressive disorder (MDD), dysthymia, depression not otherwise specified and/or borderline personality disorder as defined by Diagnostic and Statistical Manual-IV-TR and confirmed by the Mini International Neuropsychological Interview (MINI).
(§2) Selected subjects scored >15 on the Montgomery-Åsberg Depression Rating Scale and >8 on the Sheehan Suicidality Tracking Scale (S-STS) at Screening and Baseline Visits. […]
(§3) Efficacy was measured by taking S-STS (Sheehan-Suicidality Tracking Scale (Sheehan, 2009)) scores at Baseline and at each visit for 4 weeks of treatment or until end-of-treatment and measuring the change from baseline in the S-STS total score at week 4. […]
(§4) All significance tests were two-sided. Statistical significance was assessed at the p≦0.05 level for main effects, and significance at the p≦0.10 level was considered a trend indicating efficacy. […]

The test system is the same in series [3]. The series can be described thus: Phase II trial: Sheehan Suicidality Tracking Scale (S-STS). Format: in vivo, human.
Source text: as §1
Selected subjects scored >15 on the Montgomery-Åsberg Depression Rating Scale and >8 on the Sheehan Suicidality Tracking Scale (S-STS) at Screening and Baseline Visits. Subjects were excluded if they had current, unstable and significant medical conditions (a history of unstable Thyroid disorders, a history of seizure disorders, tumors or other central nervous system (CNS) condition that predisposes the patient to risk of seizure), pregnant or lactating, had any abnormal clinical laboratory test results, or ECG results which were judged by the investigator as clinically significant, a history of intolerance or hypersensitivity to citalopram, other SSRIs, or lithium, a history or current diagnosis of bipolar mood disorder, psychosis, schizophrenia or dementia, were currently involved in another clinical trial or had participated in another clinical trial less than thirty days prior, or had current or prior treatment with citalopram or escitalopram. Psychotropic medications (anti-psychotics, anti-depressants, and mood stabilizers) were excluded during the treatment phase and required a twenty-four hour washout period prior to the first dose of study medication. Diuretics, analgesics, benzodiazepines and opiates were used with caution.
(§5) Efficacy was measured by taking S-STS (Sheehan-Suicidality Tracking Scale (Sheehan, 2009)) scores at Baseline and at each visit for 4 weeks of treatment or until end-of-treatment and measuring the change from baseline in the S-STS total score at week 4. Secondary efficacy variables were the BHS (Beck Hopelessness Scale (Beck, Steer, 1988)), BSS (Beck Scale for Suicide Ideation (Beck and Steer, 1991)), C-SSRS (Columbia Suicide Severity Rating Scale (Posner et al., 2009) and CGI (Clinical Global Impression Study (Guy, 1976)) changes at week 4. Safety measures were collected and evaluated throughout the trial. These included Adverse Events (AEs), laboratory parameters, physical examinations, ECGs and vital signs and weight measurements. Adverse events were any untoward medical event occurring in a subject administered study drug, irrespective of whether it has a causal relationship to the study drug. An adverse event could therefore be any unfavorable or unintended sign (including abnormal laboratory findings, for example), symptom, or disorder temporarily associated with study drug, whether or not considered related to the study drug. Adverse Events among the 80 participants were as follows:
All significance tests were two-sided. Statistical significance was assessed at the p≦0.05 level for main effects, and significance at the p≦0.10 level was considered a trend indicating efficacy. Missing values were handled using the last observation carried forward (LOCF) technique. The primary analysis population for inference was the intention-to-treat (ITT) population.

Series [4] shares this test system. The series can be described thus: Phase II trial: Clinical Global Impression (CGI) severity. Format: in vivo, human. To be noted: n = 40 per arm.
Source text: as §1, §2, §3, §4

Series [5] shares this test system. Briefly: Phase II trial: Montgomery-Åsberg Depression Rating Scale (MADRS). To be noted: all patients assigned, n = 40. Format: in vivo, human.
Source text: as §1, §2, §3, §4

Series [6] shares this test system. The series can be described thus: Phase II trial: Beck Scale for Suicide Ideation (BSS). The format is in vivo, human. To be noted: n = 40 per arm.
Source text: as §1, §2, §3, §4

Series [7] shares this test system. The series can be described thus: Phase II trial: adverse events. Format: in vivo, human. The method, then:
Eligible subjects were evaluated for safety parameters prior to and throughout the screening through a variety of methods including an ECG, physical exam, vital sign taking and clinical laboratory testing. A standard 12-lead ECG was performed at Screening (Visit 1) and at Week 4 (Visit 6 or Early Termination Visit). Physical examinations included determination of general appearance, mental status, skin, neck (including thyroid), eyes, ears, nose, throat, heart, lungs, abdomen, lymph nodes, musculoskeletal system, and nervous system. Vital signs included respiratory rate, radial pulse and systolic and diastolic blood pressures. Vital signs were collected in the seated position. Clinical Laboratory Testing Parameters included a Complete Metabolic Panel (Na, K, Cl, CO2, Glu, BUN, Cr, Ca, TP, Alb, TBili, AP, AST, ALT), Hematology CBC (Hgb, Hct, RBC, WBC, Pit, Diff) and TSH (w/reflex T-4). Serum HCG is performed for all females, and Urine Analysis is completed for all subjects.
as §5, with “follows: […]” for “follows:”

Series [8] is described as follows: Phase II trial: serum lithium level. The format is in vivo, human. To be noted: subgroup n = 11 of 40 on 300 mg lithium carbonate/day + 20 mg citalopram (3 at 0.5, 3 at 0.6, 5 at 0.7); week 4.
Description: All subjects received 20 mg citalopram and were randomized to either 300 mg lithium carbonate/day or placebo for 4 weeks of Double-Blind Treatment. Patients were instructed to take one capsule from the bottle and two tablets from the blister card one time daily, in the morning, orally with food. If the patient was unable to tolerate morning dosing, patient may be switched to evening dosing as long as there was 24 hours minimum between doses.

Take `CN(C)CCCC1(c2ccc(F)cc2)OCc2cc(C#N)ccc21` (stereo not shown) [Citalopram + Placebo, citalopram]: the “patients who discontinued participation because of Adverse Event” value in series [1] turned out to be 1. The “BHS, Mean (SD)” value in series [2] (Baseline) was 16.3 (3.4). In series [2] (End of Study (week 4, LOCF)), the “BHS, Mean (SD)” value is listed as 11.8 (5.4). For the same molecule, in series [3] (all patients assigned, n = 40), the “# With Full S-STS Symptom Remission” value turned out to be 6, the “# With No change in S-STS Symptoms” value was 12, the “# with Worsening of S-STS Symptoms” value was 2 and the “% With Full S-STS Symptom Remission” value is on record as “(15%)”. In addition, in series [3] (all patients assigned, n = 40), the “% With No change in S-STS Symptoms” value was “(30%)”, the “% with Worsening of S-STS Symptoms” value is recorded as “(5%)” and the “Mean Total S-STS Change Score” value came to 4.8. In addition, the “change in the mean total S-STS” value in series [3] (among the 64 completers) came out at 5.4±5.3. Moreover, the “CGI (Severity), Mean (SD)” value in series [4] (Baseline) was 4.9 (0.8). Further, the “CGI (Severity), Mean (SD)” value in series [4] (End of Study (week 4, LOCF)) is 3.3 (1.8). Besides, in series [5], the “Mean Total MADRS Change Score” value is 9.8. For the same molecule, the “BSS, Mean (SD)” value in series [6] (Baseline) is recorded as 16.2 (6.7). In addition, the “BSS, Mean (SD)” value in series [6] (End of Study (week 4, LOCF)) was 9.1 (8.2). Further, the “Adverse Events per Patient” value in series [7] (all patients assigned, n = 40) stood at 1.0. Also, in series [7] (n = 40 per arm, 4 weeks), the “Anxiousness, % of patients” value came to 3%; the “Anxiousness, number of patients” value is given as 1; the “Common Cold, % of patients” value was determined as 5%; the “Common Cold, number of patients” value came out at 2. Further, in series [7] (n = 40 per arm, 4 weeks), the “Decreased Appetite, % of patients” value was determined as 5%; the “Decreased Appetite, number of patients” value was 2; the “Dizziness, % of patients” value was 5%; the “Dizziness, number of patients” value is listed as 2. Also, in series [7] (n = 40 per arm, 4 weeks), the “Headaches, % of patients” value is given as 1 (1%); the “Headaches, number of patients” value is 1 (1%); the “Nausea, % of patients” value is recorded as 3%; the “Nausea, number of patients” value is given as 5. For the same molecule, in series [7] (n = 40 per arm, 4 weeks), the “Restlessness, % of patients” value is listed as 5%; the “Restlessness, number of patients” value came to 2; the “Somnolence, % of patients” value was determined as 18%; the “Somnolence, number of patients” value stood at 7. Besides, in series [7] (n = 40 per arm, 4 weeks), the “Total Events (most frequent and serious adverse events)” value was found to be 23; the “Vomiting, % of patients” value is given as 3%; the “Vomiting, number of patients” value is listed as 1.
As to `[Li]` [lithium], the serum lithium level in series [8] was ≥ 0.5 mEq/L.
